# In patent publication US20140234868A1, “USE FOR GLYCOLIPOPROTEIN GINTONIN, ISOLATED AND IDENTIFIED FROM GINSENG, AS A NATURAL MEDICAL-PLANT DERIVED LIGAND” (KONKUK UNIVERSITY INDUSTRIAL COOPERATION CORP., priority 2011, published 2014):
# Legend:
# LPA2 receptor = LPA2 receptor (Homo sapiens, UniProt Q9HBW0); experiment: Intracellular free Ca2+ (Fura-2AM) in LPA2-expressing B103 cells; type: cell-based; parameters: host or cells: B103 rat neuroblastoma cells; details: LPA2-expressing B103 cells
# LPA2 receptor, sequence (Q9HBW0 whole entry): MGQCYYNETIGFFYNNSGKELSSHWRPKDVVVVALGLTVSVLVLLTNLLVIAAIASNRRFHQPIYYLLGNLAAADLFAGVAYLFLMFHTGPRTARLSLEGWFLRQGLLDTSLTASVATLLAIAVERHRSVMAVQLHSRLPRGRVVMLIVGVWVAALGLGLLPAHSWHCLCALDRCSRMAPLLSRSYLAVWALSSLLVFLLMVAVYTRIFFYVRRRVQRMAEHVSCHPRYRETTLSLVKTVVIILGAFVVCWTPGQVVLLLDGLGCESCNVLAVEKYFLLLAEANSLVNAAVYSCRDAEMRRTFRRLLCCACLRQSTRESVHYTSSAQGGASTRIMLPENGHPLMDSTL
# Source text: (§1) LPA family receptors are endogenous to cells of most organs. B103 rat neuroblastoma cells, known as LPA receptor-null cells (Valentine et al., Biochim Biophys Acta 1780. 597-605) were transiently transfected with a plasmid (vector) carrying one of genes coding for LPA1(edg-2), LPA2(edg-4), LPA3(edg-7), LPA4, LPA5 and LPA6 receptors or a plasmid carrying none of them (empty vector). Two or three days after transfection, the cells are suspended, and made permeable. Then, the permeable cells are treated with Fura-2AM, a fluorescent dye binding to calcium, and then with gintonin, followed by spectrofluorephotometry to examine whether gintonin induces an increase in intracellular free Ca^2+ level.
# (§2) (1) preparing large quantities of plasmids carrying respective LPA family receptor genes and an empty plasmid carrying none of them through amplification and purification (maxi-preparation); (2) verifying the expression of LPA receptors wherein B103 cells are transfected with haematoglutin (HA)-tagged LPA receptors, and then subjected to Western blotting analysis using an anti-HA primary antibody and a horseradish peroxidase (HRP)-conjugated secondary antibody to develop a color; (3) verifying the expression of LPA receptors wherein B1-3 cells are transfected with haematoglutin (HA)-tagged LPA receptors, and then subjected to confocal laser microscopy using an anti-HA antibody and a fluorescence dye Cy3-conjugated secondary antibody; (4) transfecting the empty plasmid and each of the plasmids carrying LPA family receptor genes into B103 cells; (5) treating the transfected B103 cells with trypsin (0.05% trypsin with EDTA, w/v) 2-3 days post-transfection, to give a cell suspension; (6) culturing the suspended B103 cells with Fura-2AM (2.5 μM); and (7) treating the suspended B103 cells with gintonin and quantifying a change in intracellular free Ca^2+ level in a cuvette by spectrofluorephotometry using Fura-2AM.
# (§3) Human LPA (lysophosphatidic acid) receptor subtypes, orphan GPCRs (G protein coupled receptors) and plasmids carrying GPCRs were purchased from Missouri S&T resource Center (www.cDNA.org).
# (§4) The transient transfection of LPA receptor subtypes was carried out with the aid of Lipofectamine 2000 of Invitrogen. A plasmid (10.8 μg) carrying each LPA receptor (LPA1, LPA2, LPA3, LPA4, LPA5, and LPA6) was transfected into B103 cells grown in 10-cm dishes, and incubated for 2 days prior for use in experiments.
# In this Example, gintonin, or ginsenoside Rb1 or Rg1 was examined for its ability to induce a transient increase of [Ca^2+]i in Fura-2AM-loaded B103 cells which were transfected with LPA receptors and in Fura-2AM-loaded B103 cells which were not transfected with LPA receptors. […]
# BKCaK+ channels = experiment: BKCa K+ channel activity in Xenopus oocytes, two-electrode voltage clamp; type: cell-based; details: Kil6425 10 μM; U73122, U73343 1 μM; 2-APB 100 μM; BAPTA-AM; PMA 1 μM
# Protocol: (§5) Xenopus laevis frogs were obtained from Xenopus I (Ann Arbor, Mich.). Their care and handling were in accordance with the highest standards of institutional guidelines. To isolate oocytes, the frogs were operated on under anesthesia with an aerated solution of 3-aminobenzoic acid ethyl ester. Oocytes were separated by treatment with collagenase and agitation for two hours in a Ca^2+-free medium containing 82.5 mM NaCl, 2 mM KCl, 1 mM MgCl2, 5 mM HEPES, 2.5 mM sodium pyruvate, 100 units/ml penicillin and 100 μg/ml streptomycin.
# (§6) Stage V-VI oocytes were collected and stored in ND96 (96 mM NaCl, 2 mM KCl, 1 mM MgCl2, 1.8 mM CaCl2, and 5 mM HEPES, pH 7.4) supplemented with 50 μg/ml gentamicin. This oocyte containing solution was maintained at 18° C. with continuous gentle shaking while the ND96 medium was changed with a fresh one every day.
# Two-electrode voltage-clamp recordings were obtained from individual oocytes placed in a small Plexiglas net chamber (5 ml). Electrophysiological experiments were performed using microelectrodes filled with 3 M KCl (resistance of 0.2-0.7 MΩ) and an Oocyte Clamp amplifier (OC-725C; Warner Instrument, CT, USA) to record BKc K^+ channel activity at room temperature (Choi et al., Mol Cells 31, 133-140, 2011). For physiological recordings of BKCaK^+ channel activity, oocytes were first perfused with a Cl^−- and Ca^2+-free solution (mM: 96 NaOH, 2 KOH, 8 Mg-gluconate, 5 HEPES, 5 EGTA, pH 7.4 with methanesulfonic acid) supplemented with 500 μM anthracene-9-carboxylic acid, a Cl^− channel blocker, to block endogenous Cl-channels (Lu et al., J. Biol. Chem. 265, 16190-16194.1990). Then, the oocytes were clamped at −80 mV holding potential, followed by step depolarization from the holding potential to +40 mV at regular intervals of […] for 400 ms to record outward currents.
# endogenous CaCC = experiment: Endogenous Ca2+-activated channel (CaCC) activation in Xenopus oocytes; type: cell-based, Xenopus laevis; details: Kil6425 10 μM; U73122 1 μM; 2-APB 100 μM; BAPTA 100 μM 3 h
# [1] = test system: NMDA receptors (NR1 and NR2); experiment: NMDA receptor activity in Xenopus oocytes, two-electrode voltage clamp; type: cell-based; details: Kil6425 10 μM, 2-APB 100 μM, BAPTA 100 μM 3 h; for effect on gintonin-induced NMDA receptor activation: gintonin 1 μg/ml, U73122, U73343 1 μM, genistein 10 μM, PP2, PP3 30 μM
# Protocol: cDNAs of NMDA receptor subunits (NR1 and NR2) were employed (Zheng et al., J Neurosci. 17, 8676-8686, 1997). cDNAs (100 ng/40 nl) corresponding to respective NMDA receptor subunits (NR1 and NR2) were injected into animal or vegetal poles of oocytes by use of a […] (VWR Scientific, USA) and incubated for 4-5 days after injection (Zheng et al., J Neurosci. 17, 8676-8686, 1997).
# as §5
# as §6, with “changed to” for “changed with”
# Two-electrode voltage-clamp recordings were obtained from individual oocytes placed in a small Plexiglas net chamber (5 ml). Electrophysiological experiments were performed using microelectrodes filled with 3 M KCl (resistance of 0.2-0.7 MΩ) and an Oocyte Clamp amplifier (OC-725C; Warner Instrument, Hamden, Conn.). For physiological recordings of NMDA receptor activity, oocytes were first perfused with Mg^2+-free ND96 (mM: 96 NaOH, 2 KOH, 0.3 CaCl2, 5 HEPES pH 7.6 with methanesulfonic acid). Then, the oocytes were clamped at −60 mV holding potential, followed by recoding NMDA currents (induced by administering […]) (Zheng et al., J Neurosci. 17, 8676-8686, 1997; Chang and Kuo, J Neurosci. 28, 1546-1556, 2008).
# LPA3 receptor = target: T1, LPA3 receptor (Homo sapiens, UniProt Q9UBY5); experiment: Intracellular free Ca2+ (Fura-2AM) in LPA3-expressing B103 cells; type: cell-based; details: LPA3-expressing B103 cells; for increase of intracellular calcium level: ginsenosides each 10 μM
# T1 construct: host or cells: B103 rat neuroblastoma cells
# T1 sequence (Q9UBY5 1-353): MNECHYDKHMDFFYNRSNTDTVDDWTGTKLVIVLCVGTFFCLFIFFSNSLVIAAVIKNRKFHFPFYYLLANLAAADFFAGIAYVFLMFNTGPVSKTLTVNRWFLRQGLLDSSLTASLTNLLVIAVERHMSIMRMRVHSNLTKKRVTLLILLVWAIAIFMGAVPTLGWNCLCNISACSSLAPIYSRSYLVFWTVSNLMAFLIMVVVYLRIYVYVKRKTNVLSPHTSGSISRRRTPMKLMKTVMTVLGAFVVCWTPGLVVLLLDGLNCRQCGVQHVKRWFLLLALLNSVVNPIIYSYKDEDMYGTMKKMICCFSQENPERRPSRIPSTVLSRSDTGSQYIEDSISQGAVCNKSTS
# Source text: as §1, §2, §3, §4
# In this Example, gintonin, or ginsenoside Rb1 or Rg1 was examined for its ability to induce a transient increase of [Ca^2+]i in Fura-2AM-loaded B103 cells which were transfected with LPA receptors and in Fura-2AM-loaded B103 cells which were not transfected with LPA receptors. To this end, B103 cells (2˜4×10^6/ml) pre-treated with Fura-2AM were suspended in a 1.5 mM Ca^2+-containing buffer or Ca^2+-free buffer, and incubated 37° C. for 30 min, followed by analyzing intracellular calcium levels in the B103 cells in the presence of gintonin or ginsenosides.
# Briefly, B103 cells (1˜2×10^6/ml) were mixed with 2.5 μM Fura 2-AM in a Ca^2+ buffer (pH 7.4) containing NaCl 120 mM, KCl 5 mM, MgCl2 1 mM, CaCl2 1.5 mM, glucose 10 mM, and HEPES 25 mM, and a Ca^2+ free buffer (pH 7.4) containing NaCl 120 mM, KCl 5 mM, MgCl2 1 mM, EGTA 0.2 mM, glucose 10 mM, and HEPES 25 mM at 37° C. for 30 min in water bath with shaking according to the Jørgensen method, and washed three times with Ca^2+ buffer or Ca^2+ free buffer to remove excess Fura-2AM.
# [Ca^2+]i was estimated in Fura 2AM-loaded cells in suspension using an RF-5300PC intracellular ion measurement system (Shimadzu Corporation, Japan).
# Briefly, Fura 2-AM loaded cells were diluted with an experimental medium to a final density of 2˜4×10^6 cells/mL, and transferred to polystyrene cuvettes (Elkay Ultra-VU). The cells were stirred using Teflon-coated magnets, and the cuvette housing was thermostatically controlled at 37° C. The excitation wavelengths were alternated between 340 and 380 nm under computer control. […]
# mice = experiment: Busulfan-caused diarrhea and mucositis in mice; type: in vivo, mouse; details: busulfan 40 mg/kg i.p.; for Diarrhea (cases / mice) / Mucositis (cases / mice): gintonin 100 mg/kg oral 3 days before, observed 10 days
# Protocol: In this Example, an examination was made of the inhibitory activity of gintonin against chemotherapy-induced diarrhea and mucositis. For this, gintonin-treated mice were administered with busulfan, and observed for diarrhea and mucostitis.
# Briefly, mice were orally administered at a dose of 100 mg/kg with gintonin 3 days before intraperitoneal injection with busulfan (40 mg/kg). For the control, physiological saline was used, instead of gintonin.
molecule,measurement,setting,value
COc1ccc2c(c1)CC[C@@H]1[C@@H]2CC[C@]2(C)[C@@H](NCCCCCCN3C(=O)C=CC3=O)CC[C@@H]12 [U73122],effect on gintonin-induced intracellular calcium increase,LPA2 receptor,blocked
same,effect on gintonin-induced BKCaK+ channel activation,BKCaK+ channels,blocked gintonin-induced BKCaK^+ channel activation
same,effect on gintonin-induced CaCC activation,endogenous CaCC,suppressed gintonin-induced CaCC activation
same,effect on NMDA-induced inward current,[1]; U73122 1 μM,did not block NMDA-induced inward current
same,effect on gintonin-induced NMDA receptor activation,[1],blocked gintonin-induced NMDA receptor activation
CC(C)(C)n1nc(-c2ccc(Cl)cc2)c2c(N)ncnc21 [PP2],effect on gintonin-induced NMDA receptor activation,[1],blocked the action of gintonin
pertussis toxin [PTX],lowering of gintonin-induced increase of intracellular calcium level,"LPA3 receptor; PTX 200 μg/ml, 16 hrs pretreatment, vs cells not treated with PTX",25%
"CC(C)=CCC[C@](C)(O[C@@H]1O[C@H](CO)[C@@H](O)[C@H](O)[C@H]1O)[C@H]1CC[C@]2(C)[C@@H]1[C@H](O)C[C@@H]1[C@@]3(C)CC[C@H](O)C(C)(C)[C@@H]3[C@@H](O[C@@H]3O[C@H](CO)[C@@H](O)[C@H](O)[C@H]3O)C[C@]12C [Rg1, ginsenoside Rg1]",increase of intracellular calcium level,LPA3 receptor,no increased intracellular calcium levels were detected
"CC(C)=CCC[C@](C)(O)[C@H]1CC[C@]2(C)[C@@H]1[C@H](O)C[C@@H]1[C@@]3(C)CC[C@H](O[C@@H]4O[C@H](CO)[C@@H](O)[C@H](O)[C@H]4O[C@@H]4O[C@H](CO)[C@@H](O)[C@H](O)[C@H]4O)C(C)(C)[C@@H]3CC[C@]12C [Rg3, ginsenoside Rg3]",increase of intracellular calcium level,LPA3 receptor,no increased intracellular calcium levels were detected
"CC(C)=CCC[C@](C)(O[C@@H]1O[C@H](CO[C@@H]2O[C@H](CO)[C@@H](O)[C@H](O)[C@H]2O)[C@@H](O)[C@H](O)[C@H]1O)[C@H]1CC[C@]2(C)[C@@H]1[C@H](O)C[C@@H]1[C@@]3(C)CC[C@H](O[C@@H]4O[C@H](CO)[C@@H](O)[C@H](O)[C@H]4O[C@@H]4O[C@H](CO)[C@@H](O)[C@H](O)[C@H]4O)C(C)(C)[C@@H]3CC[C@]12C [Rb1, ginsenoside Rb1]",increase of intracellular calcium level,LPA3 receptor,no increased intracellular calcium levels were detected
"CS(=O)(=O)OCCCCOS(C)(=O)=O [Busulfan, busulfan, reference compound]",diarrhea morbidity rate,mice; gintonin 100 mg/kg oral,53.3%
same,perianal mucositis morbidity,mice; gintonin 100 mg/kg oral,46.7%
same,Diarrhea (cases / mice),mice,8/15
same,Mucositis (cases / mice),mice,7/15
same,Mucositis (cases / mice),mice; listed as bufulfan,7
same,Diarrhea (cases / mice),mice; listed as busulfan,8
COc1ccc2c(c1)CC[C@@H]1[C@@H]2CC[C@]2(C)[C@@H](NCCCCCCN3C(=O)CCC3=O)CC[C@@H]12 [U73343],effect on gintonin-induced BKCaK+ channel activation,BKCaK+ channels,did not block gintonin-induced BKCaK^+ channel activation
same,effect on gintonin-induced NMDA receptor activation,[1],did not block gintonin-induced NMDA receptor activation
O=c1c(-c2ccc(O)cc2)coc2cc(O)cc(O)c12 [Genistein],effect on gintonin-induced NMDA receptor activation,[1],inhibit gintonin-induced NMDA receptor activation
Nc1ncnc2c1cnn2-c1ccccc1 [PP3],effect on gintonin-induced NMDA receptor activation,[1],did not show inhibitory activity
